Experiments:
metaphase II oocytes [1] = experiment: FF-MAS as adjunct to a standard FSH based IVF treatment (GnRH analog Synarel down regulation, ICSI); format: cell-based, human
Excerpt: (§1) The patient underwent down regulation with an GnRH analog, i.e., Synarel (nasal spray, two puffs daily), for at least 14 days (starting in the luteal phase of the previous cycle or Day 1 or 2 in the follicular phase of the current cycle) and ovarian stimulation with recombinant FSH with an average daily dose of 225 IU. At least 3 follicles of 17 mm or more were present at the time of administering hCG, i.e. Profase (10.000 IU, one shot). Follicles were aspirated and metaphase II oocytes were cultured in oocyte culture system containing standard in vitro fertilization (IVF) media (IVF 20 (which is available from Scandinavian IVF Science AB, Gothenburg, Sweden)) supplemented with human serum albumin (0.8%) and FF-MAS (5 μM). All oocytes were cultured under normal conditions at 37° C. in the incubator. Each oocyte was cultured in one well in a four-chamber culture dish as culture media system. […] Preembryos were evaluated for cleavage stage and fragmentation/morphology at 1, 2 and 3 days post ICSI. […] The patient received an estrogen, i.e., Estrofem (6 mg/daily), and a progesterone, i.e., Utrogestan (600 mg/daily, micronized, vaginal suppository), daily to render the endometrium lining the patient uterus responsive and ready for allowing implantation of the transferred eggs. […]

metaphase II oocytes [2] = experiment: FF-MAS as adjunct to a standard FSH based IVF treatment (GnRH antagonist Cetrorelix protocol, ICSI); format: cell-based, human
Experimental: as §1, with “regulation” for “regulation with an GnRH analog, i.e., Synarel (nasal spray, two puffs daily), for at least 14 days (starting in the luteal phase of the previous cycle or Day 1 or 2 in the follicular phase of the current cycle) and ovarian stimulation”, “225 IU starting on Day 1 or 2 of the current cycle and used a GnRH antagonist, i.e., Cetrorelix (1 mg daily, subcutaneously, one shot), in the current cycle.” for “225 IU.”, “hCG, i.e., Profasi” for “hCG, i.e. Profase”, “progesterone, i.e.” for “progesterone, i.e.,”, “suppository),” for “suppository), daily”

[3] = FF-MAS 5 μM, 0.8% HSA in IVF 20 medium, 4 hours before and 20 hours after ICSI

Measured: results of the IVF procedure compared with the known procedures

CC(C)=CCC[C@@H](C)[C@H]1CC=C2C3=C(CC[C@@]21C)[C@@]1(C)CC[C@H](O)C(C)(C)[C@@H]1CC3 [FF-MAS, 4,4-dimethyl-5α-cholesta-8,14,24-triene-3β-ol]
better results: metaphase II oocytes [1]; [3] | metaphase II oocytes [1]; FF-MAS 20 μM, otherwise procedure of Example 4 | metaphase II oocytes [2]; [3] | metaphase II oocytes [2]; FF-MAS 20 μM, otherwise procedure of Example 3
